Target: recombinant CaMKIIδ (Homo sapiens (Human), UniProt Q13557)
Test: CaMKIIδ biochemical assay (HTRF)
Details: 10 pM CaMKIIδ, 110 nM calmodulin, 12 μM ATP, 1 hour; read-out: CAMKIID-HTRF-384V2 (IC50 - nM)
Experimental: CaMKIIδ Biochemical Assay
The biochemical activity of recombinant CaMKIIδ was measured by monitoring the phosphorylation of a target peptide using Homogenous Time Resolved Fluorescence (HTRF) technology from CisBio Bioassays.

Row | Structure (SMILES) | IC50 [nM]
1 | CCN(CC)[C@@H](C)CNC(=O)c1cc(-c2cnn3ccc(-c4cccs4)nc23)nc(N2CC[C@H]2c2nc(C)no2)c1 [Example 308, N—((S)-2-(diethylamino)propyl)-2-((S)-2-(3-methyl-1,2,4-oxadiazol-5-yl)azetidin-1-yl)-6-(5-(thiophen-2-yl)pyrazolo[1,5-a]pyrimidin-3-yl)isonicotinamide] | 0.71
2 | CCN(CC)[C@@H](C)CNC(=O)c1cc(-c2cnn3ccc(-c4ccccc4)nc23)nc(N2CC[C@H]2C(=O)NC)c1 [Example 309, N—((S)-2-(diethylamino)propyl)-2-((S)-2-(methylcarbamoyl)azetidin-1-yl)-6-(5-phenylpyrazolo[1,5-a]pyrimidin-3-yl)isonicotinamide] | 2.16
3 | CCN(CC)[C@@H](C)CNC(=O)c1cc(-c2cnn3ccc(-c4cccs4)nc23)nc(N2CC[C@H](C(=O)NC)C2)c1 [Example 310, N—((S)-2-(diethylamino)propyl)-2-((S)-3-(methylcarbamoyl)pyrrolidin-1-yl)-6-(5-(thiophen-2-yl)pyrazolo[1,5-a]pyrimidin-3-yl)isonicotinamide] | 0.25
4 | CCN(CC)[C@@H](C)CNC(=O)c1cc(-c2cnn3ccc(-c4cccs4)nc23)nc(N2CCC[C@H]2C(=O)NC)c1 [Example 319, N—((S)-2-(diethylamino)propyl)-2-((S)-2-(methylcarbamoyl)pyrrolidin-1-yl)-6-(5-(thiophen-2-yl)pyrazolo[1,5-a]pyrimidin-3-yl)isonicotinamide] | 3.02
5 | CCN(CC)[C@@H](C)CNC(=O)c1cc(-c2cnn3ccc(-c4cccs4)nc23)nc(N2CCC[C@@H]2C(=O)NC)c1 [Example 320, N—((S)-2-(diethylamino)propyl)-2-((R)-2-(methylcarbamoyl)pyrrolidin-1-yl)-6-(5-(thiophen-2-yl)pyrazolo[1,5-a]pyrimidin-3-yl)isonicotinamide] | 32.8
6 | CC(C)(O)CNc1cc(C(=O)N2CC3CCC(C2)NC3)cc(-c2cnn3ccc(-c4cccs4)nc23)n1 (centres unmarked) [Example 322, (-3,6-diazabicyclo[3.2.2]nonan-3-yl)(2-((2-hydroxy-2-methylpropyl)amino)-6-(5-(thiophen-2-yl)pyrazolo[1,5-a]pyrimidin-3-yl)pyridin-4-yl)methanone] | 5.01
7 | COCCNc1cc(C(=O)N2CC3CCC(C2)NC3)cc(-c2cnn3ccc(-c4cccs4)nc23)n1 (centres unmarked) [Example 323, (-3,6-diazabicyclo[3.2.2]nonan-3-yl)(2-((2-methoxyethyl)amino)-6-(5-(thiophen-2-yl)pyrazolo[1,5-a]pyrimidin-3-yl)pyridin-4-yl)methanone] | 3.22
8 | O=C(c1cc(-c2cnn3ccc(-c4cccs4)nc23)nc(N2CCN(C3COC3)CC2)c1)N1CC2CCC(C1)NC2 (centres unmarked) [Example 324, (-3,6-diazabicyclo[3.2.2]nonan-3-yl)(2-(4-(oxetan-3-yl)piperazin-1-yl)-6-(5-(thiophen-2-yl)pyrazolo[1,5-a]pyrimidin-3-yl)pyridin-4-yl)methanone] | 3.59
9 | COC1CN(c2cc(C(=O)N3CC4CCC(C3)NC4)cc(-c3cnn4ccc(-c5cccs5)nc34)n2)C1 (centres unmarked) [Example 325, (-3,6-diazabicyclo[3.2.2]nonan-3-yl)(2-(3-methoxyazetidin-1-yl)-6-(5-(thiophen-2-yl)pyrazolo[1,5-a]pyrimidin-3-yl)pyridin-4-yl)methanone] | 2.19
10 | COC1CN(c2cc(C(=O)N3[C@H]4CCNC[C@@H]3CC4)cc(-c3cnn4ccc(-c5cccs5)nc34)n2)C1 [Example 326, ((1S,6R)-3,9-diazabicyclo[4.2.1]nonan-9-yl)(2-(3-methoxyazetidin-1-yl)-6-(5-(thiophen-2-yl)pyrazolo[1,5-a]pyrimidin-3-yl)pyridin-4-yl)methanone] | 3.29
11 | COC1CN(c2cc(C(=O)N3CC[C@H](N)C3)cc(-c3cnn4ccc(-c5ccccc5)nc34)n2)C1 [Example 328, (S)-(3-aminopyrrolidin-1-yl)(2-(3-methoxyazetidin-1-yl)-6-(5-phenylpyrazolo[1,5-a]pyrimidin-3-yl)pyridin-4-yl)methanone] | 91.9
12 | COC1CN(c2cc(C(=O)N3CC4CCC(C3)NC4)cc(-c3cnn4ccc(-c5ccccc5)nc34)n2)C1 (centres unmarked) [Example 329, (-3,6-diazabicyclo[3.2.2]nonan-3-yl)(2-(3-methoxyazetidin-1-yl)-6-(5-phenylpyrazolo[1,5-a]pyrimidin-3-yl)pyridin-4-yl)methanone] | 14.1

Stronger by IC50, values ahead:

Row | IC50 [nM] | Structure (SMILES)
13 | 0.23 | CCN(CC)[C@@H](C)CNC(=O)c1cc(-c2cnn3ccc(-c4cccs4)nc23)nc(N2CC[C@@H](C(=O)NC)C2)c1 [Example 311, N—((S)-2-(diethylamino)propyl)-2-((R)-3-(methylcarbamoyl)pyrrolidin-1-yl)-6-(5-(thiophen-2-yl)pyrazolo[1,5-a]pyrimidin-3-yl)isonicotinamide]
14 | 0.21 | CCN(CC)[C@@H](C)CNC(=O)c1cc(-c2cnn3ccc(-c4cccs4)nc23)nc(N2CC[C@@H](C#N)C2)c1 [Example 312, 2-((R)-3-cyanopyrrolidin-1-yl)-N—((S)-2-(diethylamino)propyl)-6-(5-(thiophen-2-yl)pyrazolo[1,5-a]pyrimidin-3-yl)isonicotinamide]
15 | 0.14 | CCN(CC)[C@@H](C)CNC(=O)c1cc(-c2cnn3ccc(-c4cccs4)nc23)nc(N2CCNC(=O)C2)c1 [Example 314, (S)—N-(2-(diethylamino)propyl)-2-(3-oxopiperazin-1-yl)-6-(5-(thiophen-2-yl)pyrazolo[1,5-a]pyrimidin-3-yl)isonicotinamide]
16 | 0.07 | CCN(CC)[C@@H](C)CNC(=O)c1cc(-c2cnn3ccc(-c4cccs4)nc23)nc(N2CC[C@H](N)C2)c1 [Example 317, 2-((S)-3-aminopyrrolidin-1-yl)-N—((S)-2-(diethylamino)propyl)-6-(5-(thiophen-2-yl)pyrazolo[1,5-a]pyrimidin-3-yl)isonicotinamide]
17 | 0.05 | CCN(CC)[C@@H](C)CNC(=O)c1cc(-c2cnn3ccc(-c4cccs4)nc23)nc(N2CC[C@@H](N)C2)c1 [Example 318, 2-((R)-3-aminopyrrolidin-1-yl)-N—((S)-2-(diethylamino)propyl)-6-(5-(thiophen-2-yl)pyrazolo[1,5-a]pyrimidin-3-yl)isonicotinamide]
18 | 0.08 | CCN(CC)[C@@H](C)CNC(=O)c1cc(-c2cnn(C)c2)nc(-c2cnn3ccc(-c4cccs4)nc23)c1 [Example 331, (S)—N-(2-(diethylamino)propyl)-2-(1-methyl-1H-pyrazol-4-yl)-6-(5-(thiophen-2-yl)pyrazolo[1,5-a]pyrimidin-3-yl)isonicotinamide]
19 | 0.24 | CCN(CC)[C@@H](C)CNC(=O)c1cc(-c2c(C)n[nH]c2C)nc(-c2cnn3ccc(-c4cccs4)nc23)c1 [Example 332, (S)—N-(2-(diethylamino)propyl)-2-(3,5-dimethyl-1H-pyrazol-4-yl)-6-(5-(thiophen-2-yl)pyrazolo[1,5-a]pyrimidin-3-yl)isonicotinamide]
20 | 0.22 | CCN(CC)[C@@H](C)CNC(=O)c1cc(-c2c[nH]nc2C)nc(-c2cnn3ccc(-c4cccs4)nc23)c1 [Example 333, (S)—N-(2-(diethylamino)propyl)-2-(3-methyl-1H-pyrazol-4-yl)-6-(5-(thiophen-2-yl)pyrazolo[1,5-a]pyrimidin-3-yl)isonicotinamide]

Source: patent publication US10100058B2, “Fused heterocyclic compounds as CaM kinase inhibitors” (Gilead Sciences, Inc., priority 2016, dated 2018)
